Experiment [1] relates to P. aeruginosa strains PAO1 and PA14. Put plainly: Inhibitory activity against P. aeruginosa, strain not separated in text. The format is cell-based, Pseudomonas aeruginosa. The following applies: for inhibitory activity against P. aeruginosa, in words (SAR): compared with promysalin; for pIC50: Pseudomonas aeruginosa, PAO1 and PA14, read-out: IC50 / inactive up to concentration. As for the experimental part:
(§1) P. aeruginosa PA01, and PA14 were gifts from Prof. George O'Toole (Dartmouth Medical School). Bacterial cultures were grown from freezer stocks overnight (16-24 hr) with shaking at 37° C. in Tryptic Soy Broth (TSB) media (10 mL). Growth curves were obtained for PA01 and PA14 to determine the OD of each strain in exponential growth; OD readings at 595 nm were taken every 10 minutes for 6 hours in a plate reader at 37° C. with shaking and repeated six times. (see FIGS. 6A and 6B)
(§2) Compounds were serially diluted in sterile DI water from a stock solution (1 mM in 10% DMSO/90% H2O) to yield twenty-four test concentrations. Overnight cultures were diluted 1:100 in 5 mL fresh media and grown with shaking at 37° C. to an OD of 0.32 (see growth curves). Bacteria were diluted to a concentration of 0.004 using the following equation: (x μL O/N)(OD reading)=(0.004)(volume needed) and 100 μL was inoculated into each well of a flat-bottom 96-well plate (Corning 3370) containing 100 μL of compound solution. Plates were incubated statically at 37° C. for 24 hours, upon which time the OD at 595 nm was measured using a plate reader. IC50 values were calculated by fitting the OD readings vs. concentration with a 4 parameter logistic model. Controls were prepared by serially diluting a 10% DMSO/90% H2O the same as the compound stock solution. Compounds were tested in triplicate from separate O/N cultures and results averaged.
With a library of sixteen analogs in hand, all of the compounds were evaluated for inhibitory activity against P. aeruginosa strains PAO1 and PA14. […] The inhibition data supported our initial hypothesis that the conformation of promysalin is exquisitely linked to its inhibition of PA. Of our modifications to the proline structure, fluorination (9)—being the smallest steric perturbation, was the only compound with equipotency to that of promysalin.

The next experiment has as its system P. aeruginosa PA14. Put plainly: IC50 assay (OD595, 24 h) against PA14. The format is cell-based, Pseudomonas aeruginosa. The note with it: for pIC50: Pseudomonas aeruginosa. The procedure: as §1, §2
Compounds were serially diluted in sterile DI water from a stock solution (10% DMSO/H2O) yielding 24 test concentrations. Bacteria were diluted to a final concentration of 0.004 from regrown overnight culture according to the following equation: (xμL bacterial culture)(OD reading)=(0.004)(total volume needed) and 100 μL was inoculated into each well of a flat-bottom 96-well plate (Corning 3370) containing 100 μL of compound solution. Plates were incubated statically at 37° C. for 24 hours upon which time OD at 595 nm was measured using a plate reader (Spectra Max 190). IC50 values were calculated using OD values and concentrations with a 4-parameter logistic model. Control experiments used a 10% DMSO/H2O stock serially diluted to the same 24 concentrations. Compounds were tested in triplicate from three independent overnight cultures.

A further experiment concerns P. aeruginosa PA01. In words: IC50 assay (OD595, 24 h) against PA01. The format is cell-based. The following applies: Pseudomonas aeruginosa. The procedure:
P. aeruginosa PA01, and PA14 were gifts from Prof. George O'Toole (Dartmouth Medical School). Bacterial cultures were grown from freezer stocks overnight (16-24 hr) with shaking at 37° C. in Tryptic Soy Broth (TSB) media (10 mL). Growth curves were obtained for PA01 and PA14 to determine the OD of each strain in exponential growth; OD readings at 595 nm were taken every 10 minutes for 6 hours in a plate reader at 37° C. with shaking and repeated six times. (see FIGS. 6A and 6B) Compounds were serially diluted in sterile DI water from a stock solution (1 mM in 10% DMSO/90% H2O) to yield twenty-four test concentrations. Overnight cultures were diluted 1:100 in 5 mL fresh media and grown with shaking at 37° C. to an OD of 0.32 (see growth curves). Bacteria were diluted to a concentration of 0.004 using the following equation: (x μL O/N)(OD reading)=(0.004)(volume needed) and 100 μL was inoculated into each well of a flat-bottom 96-well plate (Corning 3370) containing 100 μL of compound solution. Plates were incubated statically at 37° C. for 24 hours, upon which time the OD at 595 nm was measured using a plate reader. IC50 values were calculated by fitting the OD readings vs. concentration with a 4 parameter logistic model. Controls were prepared by serially diluting a 10% DMSO/90% H2O the same as the compound stock solution. Compounds were tested in triplicate from separate O/N cultures and results averaged.

Setting [2] is: average of EXPT 1-3, read-out: IC50 PA14 AVG.
The mark [3] stands for this setting: averages of three independent experiments, read-out: IC50 PA14.
Where [4] appears, read: single trial 1, read-out: IC50 PA14 EXPT 1.
[5] abbreviates: single trial 2, read-out: IC50 PA14 EXPT 2.
Setting [6] is: single trial 3, read-out: IC50 PA14 EXPT 3.
Setting [7] is: average of EXPT 1-3, read-out: IC50 PA01 AVG.
[8] abbreviates: averages of three independent experiments, read-out: IC50 PA01.
The mark [9] stands for this setting: single trial 1, read-out: IC50 PA01 EXPT 1.
Where [10] appears, read: single trial 2, read-out: IC50 PA01 EXPT 2.
Setting [11] is: single trial 3, read-out: IC50 PA01 EXPT 3.

pIC50: −log10 of the molar value. Like-named read-outs stand apart in the source and are kept apart here. A value given as a limit tells only on which side of the number the result lay.

As to `CCCCCC[C@H](CCCCC[C@@H](O)C(N)=O)OC(=O)[C@@H]1CC[C@@H]2Oc3ccccc3C(=O)N21` (single isomer, unassigned) [2a], the “inhibitory activity against P. aeruginosa, in words (SAR)” value in experiment [1] is reported as “no biological activity”.

For the compound `CCCCCC[C@H](CCCCC[C@@H](O)C(N)=O)OC(=O)[C@@H]1CC[C@H]2Oc3ccccc3C(=O)N21` (single isomer, unassigned) [2b], the “inhibitory activity against P. aeruginosa, in words (SAR)” value in experiment [1] is on record as “no biological activity”.

Consider `C#CCCC1(CCNC(=O)[C@H](O)CCCCC[C@@H](CCCCCC)OC(=O)[C@@H]2CC=CN2C(=O)c2ccccc2O)N=N1` [(−)-2, (7R,13R)-14-((2-(3-(but-3-yn-1-yl)-3H-diazirin-3-yl)ethyl)amino)-13-hydroxy-14-oxotetradecan-7-yl (S)-1-(2-hydroxybenzoyl)-2,3-dihydro-1H-pyrrole-2-carboxylate], for which the “less active than promysalin” value in experiment [1] is around 10 ×. In addition, the pIC50 in the experiment on P. aeruginosa PA14 (read-out: IC50 in PA14) was 5.77.

As for `C#CCNC(=O)[C@H](O)CCCCC[C@@H](CCCCCC)OC(=O)[C@@H]1CC=CN1C(=O)c1ccccc1O` [(−)-S4, (7R,13R)-13-hydroxy-14-oxo-14-(prop-2-yn-1-ylamino)tetradecan-7-yl (S)-1-(2-hydroxybenzoyl)-2,3-dihydro-1H-pyrrole-2-carboxylate], the “activity relative to the natural product” value in the experiment with P. aeruginosa PA14 is “three-fold less active”. In addition, the pIC50 in the experiment with P. aeruginosa PA14 (preliminary screening for probe design, read-out: IC50 in PA14) is 6.66.

As for `C#CCCC1(CCNC(=O)[C@H](O)CCCCC[C@@H](CCCCCC)OC(=O)[C@@H]2CC=CN2C(=O)c2ccccc2)N=N1` [(−)-S12, (7R,13R)-14-((2-(3-(but-3-yn-1-yl)-3H-diazirin-3-yl)ethyl)amino)-13-hydroxy-14-oxotetradecan-7-yl (S)-1-benzoyl-2,3-dihydro-1H-pyrrole-2-carboxylate], the “inhibitory activity against P. aeruginosa, in words (SAR)” value in experiment [1] was “inactive”.

As to `CCCCCC[C@@H](O)CCCCC[C@@H](O)C(N)=O` [compound 4, (2R,8R)-2,8-dihydroxytetradecanamide], in experiment [1], the pIC50 is below 3.60.

Consider `COC(=O)[C@@H]1CC=CN1C(=O)c1ccccc1O` [compound 5, Methyl (2S)-1-(2-hydroxybenzoyl)-2,3-dihydro-1H-pyrrole-2-carboxylate], for which, in experiment [1], the pIC50 was below 3.60.

On to `CCCCCC[C@H](CCCCC[C@@H](O)C(N)=O)OC(=O)[C@@H]1CCCN1C(=O)c1ccccc1O` [compound 6, (1R,7R)-1-carbamoyl-1-hydroxytridecan-7-yl (2S)-1-(2-hydroxybenzoyl)pyrrolidine-2-carboxylate], for which, in experiment [1], the “inhibitory activity against P. aeruginosa, in words (SAR)” value is on record as “modest activity”. In addition, the pIC50 is 4.55 in the experiment with P. aeruginosa PA14 (setting [2]); 4.55 in the experiment on P. aeruginosa PA14 (setting [3]); 4.61 in the experiment with P. aeruginosa PA14 (setting [4]); 4.57 in the experiment on P. aeruginosa PA14 (setting [5]); 4.47 in the experiment on P. aeruginosa PA14 (setting [6]); 3.96 in the experiment on P. aeruginosa PA01 (setting [7]). For the same compound, the pIC50 with P. aeruginosa PA01 (setting [8]) is 3.95; in the experiment with P. aeruginosa PA01 (setting [9]), 3.95; with P. aeruginosa PA01 (setting [10]), 4.00; in the experiment on P. aeruginosa PA01 (setting [11]) it was 3.92.

Regarding `CCCCCC[C@H](CCCCC[C@@H](O)C(N)=O)OC(=O)[C@@H]1CCCCN1C(=O)c1ccccc1O` [compound 7, (1R,7R)-1-carbamoyl-1-hydroxytridecan-7-yl (2S)-1-(2-hydroxybenzoyl)piperidine-2-carboxylate], the “inhibitory activity against P. aeruginosa, in words (SAR)” value in experiment [1] was “inactive”.

Take `CCCCCC[C@H](CCCCC[C@@H](O)C(N)=O)OC(=O)[C@@H]1C[C@@H](O)CN1C(=O)c1ccccc1O` [compound 8, (1R,7R)-1-carbamoyl-1-hydroxytridecan-7-yl (2S,4R)-4-hydroxy-1-(2-hydroxybenzoyl)pyrrolidine-2-carboxylate]: the “inhibitory activity against P. aeruginosa, in words (SAR)” value in experiment [1] is “inactive”.

Turning to `CCCCCC[C@H](CCCCC[C@@H](O)C(N)=O)OC(=O)[C@@H]1CC(F)=CN1C(=O)c1ccccc1O` [compound 9, (7R,13R)-14-amino-13-hydroxy-14-oxotetradecan-7-yl (S)-4-fluoro-1-(2-hydroxybenzoyl)-2,3-dihydro-1H-pyrrole-2-carboxylate], in experiment [1], the “inhibitory activity against P. aeruginosa, in words (SAR)” value is given as “equipotency”. Further, the pIC50 is 7.72 in the experiment on P. aeruginosa PA14 (setting [2]); 7.72 with P. aeruginosa PA14 (setting [3]); 7.40 with P. aeruginosa PA14 (setting [4]); 8.00 in the experiment with P. aeruginosa PA14 (setting [5]); 8.00 in the experiment on P. aeruginosa PA14 (setting [6]); 5.11 in the experiment on P. aeruginosa PA01 (setting [7]). Moreover, the pIC50 with P. aeruginosa PA01 (setting [8]) is 5.11; in the experiment with P. aeruginosa PA01 (setting [9]) it was 5.09; in the experiment on P. aeruginosa PA01 (setting [10]), 5.07; in the experiment with P. aeruginosa PA01 (setting [11]), 5.19.

As to `CCCCCC[C@H](CCCCC[C@@H](O)C(N)=O)OC(=O)[C@@H]1CC=CN1C(=O)c1cccc(O)c1` [compound 12, (7R,13R)-14-amino-13-hydroxy-14-oxotetradecan-7-yl (S)-1-(3-hydroxybenzoyl)-2,3-dihydro-1H-pyrrole-2-carboxylate], in experiment [1], the “inhibitory activity against P. aeruginosa, in words (SAR)” value was “largely unforgiving”.

Regarding `CCCCCC[C@H](CCCCC[C@@H](O)C(N)=O)OC(=O)[C@@H]1CC=CN1C(=O)c1ccc(O)cc1` [compound 13, (1R,7R)-1-carbamoyl-1-hydroxytridecan-7-yl (2S)-1-(4-hydroxybenzoyl)-2,3-dihydro-1H-pyrrole-2-carboxylate], the “inhibitory activity against P. aeruginosa, in words (SAR)” value in experiment [1] was “largely unforgiving”.

For the compound `CCCCCC[C@H](CCCCC[C@@H](O)C(N)=O)OC(=O)[C@@H]1CC=CN1C(=O)c1ccccc1` [compound 14, (1R,7R)-1-carbamoyl-1-hydroxytridecan-7-yl (2S)-1-benzoyl-2,3-dihydro-1H-pyrrole-2-carboxylate], in experiment [1], the “inhibitory activity against P. aeruginosa, in words (SAR)” value is “largely unforgiving”.

As to `CCCCCC[C@H](CCCCC[C@@H](O)C(N)=O)OC(=O)[C@@H]1CC=CN1C(=O)c1c(O)cccc1OC` [compound 15, (7R,13R)-14-amino-13-hydroxy-14-oxotetradecan-7-yl (S)-1-(2-hydroxy-6-methoxybenzoyl)-2,3-dihydro-1H-pyrrole-2-carboxylate], in experiment [1], the “inhibitory activity against P. aeruginosa, in words (SAR)” value is “not tolerated”.

As to `CCCCCC[C@H](CCCCC[C@@H](O)C(N)=O)OC(=O)[C@@H]1CC=CN1C(=O)c1cc(OC)c(OC)c(OC)c1` [compound 16, (1R,7R)-1-carbamoyl-1-hydroxytridecan-7-yl (2S)-1-(3,4,5-trimethoxybenzoyl)-2,3-dihydro-1H-pyrrole-2-carboxylate], in experiment [1], the “inhibitory activity against P. aeruginosa, in words (SAR)” value is recorded as “not tolerated”.

With `CCCCCC[C@H](CCCCC[C@@H](O)C(N)=O)OC(=O)[C@@H]1CC=CN1C(=O)c1ccccc1[N+](=O)[O-]` [compound 17, (7R,13R)-14-amino-13-hydroxy-14-oxotetradecan-7-yl (S)-1-(2-nitrobenzoyl)-2,3-dihydro-1H-pyrrole-2-carboxylate], the “inhibitory activity against P. aeruginosa, in words (SAR)” value in experiment [1] is given as “largely unforgiving”.

The values are drawn from patent US10647671B2, “Promysalin analogues and methods of use thereof” (Temple University—Of The Commonwealth System of Higher …, priority 2016, dated 2020).
